Results on three substances are retold here after patent US20020193587A1, “Penicillin crystal and process for producing the same” (priority 2000, published 2002).

This data set is described as follows: Storage stability in sealed test tubes at room temperature for 1 year, purity determined by HPLC. To be noted: 10 g in sealed test tube, stored at room temperature (5 to 35° C.) for 1 year, starting purity 100% (Examples 1, 2), 79% (Comparative Example 1), 93% (Comparative Example 2). The data set is classed as physicochemical. On the procedure: A test tube was charged with 10 g of each of the TAZB crystal of Example 1 (purity 100%), the TAZB crystal of Example 2 (purity 100%), the TAZB oily substance of Comparative Example 1 (purity 79%), and the TAZB amorphous powder of Comparative Example 2 (purity 93%). The test tubes were sealed and stored at room temperature (5 to 35° C.) for 1 year after which their purity was determined by HPLC.

Substance “diphenylmethyl 2-methyl-2-triazolylmethylpenam-3-carboxylate 1,1-dioxide [Comparative Example 1]” displayed a purity after storage of 52%.
The same measure for “diphenylmethyl 2-methyl-2-triazolylmethylpenam-3-carboxylate 1,1-dioxide [Comparative Example 2]”: 81%; for “diphenylmethyl 2-methyl-2-triazolylmethylpenam-3-carboxylate 1,1-dioxide [Example 2]”: 99%.
